Laboratory results from patent US6586460B1, “Heteroarotinoids containing urea or thiourea linker” (The Board of Regents for Oklahoma State University, priority 2001, dated 2003).
Where “and” joins values, the source holds several entries; their conditions need not be identical. Equal entries are not always repeated.

Experiments:
Experiment in all cases: Growth inhibition assay (SRB)
SK-OV-3 = type: cell-based; conditions: 3 days of treatment; for inhibition at 1 µM / inhibition at 10 µM: Homo sapiens, SK-OV-3, 72 h, read-out: Percentage of growth inhibition, SKOV−3
Description: (§1) To illustrate the general and useful biological activity of the heteroarotinoids described in this invention, selected compounds were screened for ability to inhibit the growth of three ovarian cancerous cell lines, namely Caov, SKOV, and OVCAR cell lines, three cervical cell lines (Cervix HPV-Wt p53, Cervix HPV-Mut p53, and Cervix HPV-Mut p53), and one vulvar (Vulvar HPV-Mut p53) cell line as shown in Tables I-III. The cell lines and the technology have been previously described [See Journal of Medicinal Chemistry, 1999, Vol. 42, pages 3602-3614 in an article entitled “Synthesis, Structure-Activity Relationships, and RAR γ-Ligand Interactions of Nitrogen Heteroarotinoids” by A. Dhar, S. Liu, J. Klucik, K. D. Berlin, M. M. Madler, S. Lu, R. T. Ivey, D. Zacheis, C. W. Brown, E. C. Nelson, P. J. Birckbichler, and D. M. Benbrook], but the general technique was slightly modified. Cultures of the cancerous cells were plated in volumes of 150 μL in 96-well microtiter plates at concentrations of 2000-4000 cells/well, depending upon the cell line used. Retinoids were added the next day at 4× the concentrations in 50 μL of media resulting in 1, 2, 3, 4, 5, 7, and 10 μM final concentrations of each retinoid. Control cultures were treated with the same volume of DMSO. After 3 days of treatment, the cell density in each well was determined by fixing the cells in trichloroacetic acid followed by staining the cytoplasmic proteins with sulforhoamine B (SRB). After rinsing, the SRB was solubilized in Tris-HCl, and the optical density of each culture was determined with a MR600 microtiter plate reader. Each experiment was performed in triplicate, and the three values of each treatment were averaged. The average OD of the treated cultures was divided by that of the control cultures treated with solvent alone. To determine the percent growth inhibition, this ratio was subtracted from 1 and multiplied by 100. Tables I, II, and III contain representative examples of the inhibition of growth by the inventive heteroarotinoids of the cancerous cell lines investigated at two independent concentrations (1 and 10 μM). As standards for comparison purposes, trans-retinoic acid (t-RA), 9-cis-retinoic acid (9-c-RA), 13-cis-retinoic acid (13-c-RA), and […] (4-HPR) were added in parallel experiments along with the heteroarotinoids and with dimethyl sulfoxide (DMSO) as the solvent. For convenience, the data in Tables II and III are duplicated and ranked according to tumor type.

OVCAR-3 = type: cell-based, human; conditions: for Percentage of growth inhibition, OVCAR−3 / inhibition at 1 µM / inhibition at 10 µM: 3 days of treatment; for inhibition at 1 µM / inhibition at 10 µM: Homo sapiens, OVCAR-3, 72 h, read-out: Percentage of growth inhibition, OVCAR−3
Description: as §1

CAOV-3 = type: cell-based; conditions: 3 days of treatment; for inhibition at 1 µM / inhibition at 10 µM: Homo sapiens, Caov-3, 72 h, read-out: Percentage of growth inhibition, CAOV−3
Description: as §1

| Molecule | Percentage of growth inhibition, SKOV−3 (SK-OV-3; 1 μM, Table II) [%] | Percentage of growth inhibition, OVCAR−3 (OVCAR-3; 1 μM, Table II) [%] | Percentage of growth inhibition, CAOV−3 (CAOV-3; 1 μM, Table II) [%] | Percentage of growth inhibition, CAOV−3 (CAOV-3; 10 μM, Table III) [%] | Percentage of growth inhibition, SKOV−3 (SK-OV-3; 10 μM, Table III) [%] | Percentage of growth inhibition, OVCAR−3 (OVCAR-3; 10 μM, Table III) | other results |
| --- | --- | --- | --- | --- | --- | --- | --- |
| 13-cis-retinoic acid [13-c-RA, reference compound] | 28.5 | 9.8 | – | – | – | – | – |
| CC1(C)CC(C)(C)c2cc(NC(=O)Nc3ccc(C(=O)O)cc3)ccc2S1 [heteroarotinoid 14] | 3.58 | −6.70 | −4.00 | 6.12 | 0.43 | 5.45% | – |
| CC1(C)CC(C)(C)c2cc(NC(=S)Nc3ccc(S(N)(=O)=O)cc3)ccc2S1 [heteroarotinoid 15] | −1.86 | 8.91 | 19.85 | −9.56 | 9.83 | 40.90% | – |
| Cc1cc2c(cc1NC(=S)Nc1ccc([N+](=O)[O-])cc1)C(C)(C)CC(C)(C)S2 [heteroarotinoid 17] | 3.0 | 6.6 | – | – | 65.3 | 64.9% | – |
| Cc1cc2c(cc1NC(=S)Nc1ccc(C(=O)O)cc1)C(C)(C)CC(C)(C)S2 [heteroarotinoid 18] | 10.5 | 10.1 | – | – | 8.5 | 18.7% | – |
| Cc1cc([N+](=O)[O-])ccc1NC(=S)Nc1cc2c(cc1C)SC(C)(C)CC2(C)C [heteroarotinoid 19] | 16.3 | 9.6 | – | – | 33.3 | 33.2% | – |
| Cc1cc2c(cc1NC(=S)Nc1ccc(S(N)(=O)=O)cc1)C(C)(C)CC(C)(C)S2 [heteroarotinoid 20] | 14.7 | 10.3 | – | – | 12.1 | 47.1% | – |
| CC1(C)CC(C)(C)c2cccc(NC(=S)Nc3ccc([N+](=O)[O-])cc3)c2S1 [heteroarotinoid 22, [(4-Nitrophenyl)amino][(2,2,4,4-tetramethyl{3H-benzo[3,4-e]thiany-8-yl})amino]methane-1-thione] | 1.09 | 4.07 | −9.97 | – | – | 40.13% and 40.14% | – |
| CCOC(=O)c1ccc(NC(=S)Nc2cccc3c2SC(C)(C)CC3(C)C)cc1 [heteroarotinoid 23] | −0.79 | −0.19 | 11.36 | 17.77 | 7.67 | 2.75% | – |
| CCOC(=O)c1ccc(NC(=O)Nc2cc3c(cc2OC)C(C)(C)COC3(C)C)cc1 [heteroarotinoid 33] | 1.65 | 8.81 | 3.79 | 40.04 | 15.60 | 52.61% | – |
| CCCCOC(=O)c1ccc(NC(=O)Nc2cc3c(cc2OC)C(C)(C)COC3(C)C)cc1 [heteroarotinoid 34] | 22.2 | 2.2 | – | – | 6.0 | 30.5% | – |
| COc1cc2c(cc1NC(=S)Nc1ccc([N+](=O)[O-])cc1C)C(C)(C)OCC2(C)C [heteroarotinoid 35] | 10.3 | 5.6 | – | – | −14.3 | 6.1% | – |
| CCOC(=O)c1ccc(NC(=O)Nc2c(OC)ccc3c2C(C)(C)COC3(C)C)cc1 [heteroarotinoid 38, Ethyl 4-{[N-(6-Methoxy-1,1,4,4-tetramethylisochroman-5-yl)carbamoyl]amino}benzoate] | – | – | – | – | – | – | inhibition at 1 µM (CAOV-3; 1 μM, Table II): 8.79%; inhibition at 10 µM (CAOV-3; 10 μM, Table III): -16.1%; inhibition at 1 µM (SK-OV-3; 1 μM, Table II): -2.39%; inhibition at 10 µM (SK-OV-3; 10 μM, Table III): -7.7%; inhibition at 1 µM (OVCAR-3; 1 μM, Table II): 9.48%; inhibition at 10 µM (OVCAR-3; 10 μM, Table III): 8.96% |
| CCCCOC(=O)c1ccc(NC(=O)Nc2c(OC)ccc3c2C(C)(C)COC3(C)C)cc1 [heteroarotinoid 40] | 1.82 | 15.47 | 15.24 | 37.84 | 9.27 | 33.74% | inhibition of growth of the OVCAR cell line exceeding that of 4-HPR (OVCAR-3; 1 μM, Table II): more than 1200%; inhibition of growth of the OVCAR cell line exceeding that of 9-c-RA (OVCAR-3; 1 μM, Table II): about 120%; inhibition of growth of the OVCAR cell line exceeding that of 13-c-RA (OVCAR-3; 1 μM, Table II): about 40%; inhibition of growth of the OVCAR cell line exceeding that of t-RA (OVCAR-3; 1 μM, Table II): about 120% |
| COc1ccc2c(c1NC(=S)Nc1ccc([N+](=O)[O-])cc1)C(C)(C)COC2(C)C [heteroarotinoid 41] | −2.72 | 7.18 | 7.58 | 61.94 | 45.45 | 81.71% | – |
| CCOC(=O)c1ccc(NC(=O)Nc2cc(C(C)=O)cc3c2OCCC3(C)C)cc1 [heteroarotinoid 45, Ethyl 4-{[N-(6-Acetyl-4,4-dimethylchroman-8-yl)carbamoyl]amino}benzoate] | – | – | – | – | – | – | inhibition at 1 µM (CAOV-3; 1 μM, Table II): 7.18%; inhibition at 10 µM (CAOV-3; 10 μM, Table III): 42.8%; inhibition at 1 µM (SK-OV-3; 1 μM, Table II): -4.18%; inhibition at 10 µM (SK-OV-3; 10 μM, Table III): 20%; inhibition at 1 µM (OVCAR-3; 1 μM, Table II): 9.2%; inhibition at 10 µM (OVCAR-3; 10 μM, Table III): 47.2% |
| CC(=O)c1cc(NC(=S)Nc2ccc([N+](=O)[O-])cc2)c2c(c1)C(C)(C)CCO2 [heteroarotinoid 46] | −1.53 | 8.57 | 3.85 | −5.35 | 0.25 | 43.15% | – |
